{"source": "the NIST ThermoML archive (doi:10.1007/s10765-012-1261-6)", "details": "Closed cell (Static) method", "note": "Values joined by “and” are separate entries in the source; they are usually repeats but may differ in a detail not shown here. Equal values may be shown once. ± gives the expanded uncertainty stated by the source."}
{"smiles": "O", "note": "[water]", "values": [{"measurement": "vapor or sublimation pressure", "setting": "249.29 K, Crystal", "result": "0.07045 ± 0.02", "unit": "kPa"}, {"measurement": "vapor or sublimation pressure", "setting": "249.35 K, Crystal", "result": "0.07242 ± 0.02", "unit": "kPa"}, {"measurement": "vapor or sublimation pressure", "setting": "250.11 K, Crystal", "result": "0.08146 ± 0.02", "unit": "kPa"}, {"measurement": "vapor or sublimation pressure", "setting": "252.96 K, Crystal", "result": "0.09665 ± 0.02", "unit": "kPa"}, {"measurement": "vapor or sublimation pressure", "setting": "253.02 K, Crystal", "result": "0.1036 ± 0.02 kPa and 0.1016 ± 0.02 kPa"}, {"measurement": "vapor or sublimation pressure", "setting": "253.59 K, Crystal", "result": "0.1049 ± 0.02", "unit": "kPa"}, {"measurement": "vapor or sublimation pressure", "setting": "257.86 K, Crystal", "result": "0.1607 ± 0.02", "unit": "kPa"}, {"measurement": "vapor or sublimation pressure", "setting": "258.04 K, Crystal", "result": "0.1642 ± 0.02 kPa and 0.1567 ± 0.02 kPa"}, {"measurement": "vapor or sublimation pressure", "setting": "258.05 K, Crystal", "result": "0.165 ± 0.02", "unit": "kPa"}, {"measurement": "vapor or sublimation pressure", "setting": "262.84 K, Crystal", "result": "0.2552 ± 0.02", "unit": "kPa"}, {"measurement": "vapor or sublimation pressure", "setting": "262.98 K, Crystal", "result": "0.2629 ± 0.021 kPa and 0.2541 ± 0.021 kPa"}, {"measurement": "vapor or sublimation pressure", "setting": "263 K, Crystal", "result": "0.2517 ± 0.02", "unit": "kPa"}, {"measurement": "vapor or sublimation pressure", "setting": "267.85 K, Crystal", "result": "0.4157 ± 0.021", "unit": "kPa"}, {"measurement": "vapor or sublimation pressure", "setting": "267.91 K, Crystal", "result": "0.4036 ± 0.021", "unit": "kPa"}, {"measurement": "vapor or sublimation pressure", "setting": "267.93 K, Crystal", "result": "0.392 ± 0.021", "unit": "kPa"}, {"measurement": "vapor or sublimation pressure", "setting": "267.99 K, Crystal", "result": "0.423 ± 0.021", "unit": "kPa"}, {"measurement": "vapor or sublimation pressure", "setting": "272.87 K, Liquid", "result": "0.6049 ± 0.022", "unit": "kPa"}, {"measurement": "vapor or sublimation pressure", "setting": "272.98 K, Liquid", "result": "0.6038 ± 0.022", "unit": "kPa"}, {"measurement": "vapor or sublimation pressure", "setting": "273.02 K, Liquid", "result": "0.6135 ± 0.022", "unit": "kPa"}, {"measurement": "vapor or sublimation pressure", "setting": "277.94 K, Liquid", "result": "0.8666 ± 0.023", "unit": "kPa"}, {"measurement": "vapor or sublimation pressure", "setting": "277.95 K, Liquid", "result": "0.8493 ± 0.023", "unit": "kPa"}, {"measurement": "vapor or sublimation pressure", "setting": "277.97 K, Liquid", "result": "0.8679 ± 0.023", "unit": "kPa"}, {"measurement": "vapor or sublimation pressure", "setting": "278.01 K, Liquid", "result": "0.8712 ± 0.023", "unit": "kPa"}, {"measurement": "vapor or sublimation pressure", "setting": "278.07 K, Liquid", "result": "0.8686 ± 0.023", "unit": "kPa"}, {"measurement": "vapor or sublimation pressure", "setting": "282.91 K, Liquid", "result": "1.211 ± 0.025", "unit": "kPa"}, {"measurement": "vapor or sublimation pressure", "setting": "282.94 K, Liquid", "result": "1.215 ± 0.025", "unit": "kPa"}, {"measurement": "vapor or sublimation pressure", "setting": "282.95 K, Liquid", "result": "1.197 ± 0.025", "unit": "kPa"}, {"measurement": "vapor or sublimation pressure", "setting": "283.03 K, Liquid", "result": "1.224 ± 0.025", "unit": "kPa"}, {"measurement": "vapor or sublimation pressure", "setting": "288 K, Liquid", "result": "1.687 ± 0.028", "unit": "kPa"}, {"measurement": "vapor or sublimation pressure", "setting": "292.84 K, Liquid", "result": "2.295 ± 0.033", "unit": "kPa"}, {"measurement": "vapor or sublimation pressure", "setting": "293.03 K, Liquid", "result": "2.307 ± 0.024", "unit": "kPa"}, {"measurement": "vapor or sublimation pressure", "setting": "293.1 K, Liquid", "result": "2.337 ± 0.033", "unit": "kPa"}, {"measurement": "vapor or sublimation pressure", "setting": "302.8 K, Liquid", "result": "4.162 ± 0.044", "unit": "kPa"}, {"measurement": "vapor or sublimation pressure", "setting": "303.07 K, Liquid", "result": "4.214 ± 0.038 kPa and 4.238 ± 0.048 kPa"}, {"measurement": "vapor or sublimation pressure", "setting": "303.1 K, Liquid", "result": "4.235 ± 0.044", "unit": "kPa"}, {"measurement": "vapor or sublimation pressure", "setting": "312.8 K, Liquid", "result": "7.248 ± 0.063", "unit": "kPa"}, {"measurement": "vapor or sublimation pressure", "setting": "313.11 K, Liquid", "result": "7.367 ± 0.063", "unit": "kPa"}, {"measurement": "vapor or sublimation pressure", "setting": "313.12 K, Liquid", "result": "7.372 ± 0.064", "unit": "kPa"}, {"measurement": "vapor or sublimation pressure", "setting": "313.16 K, Liquid", "result": "7.386 ± 0.063", "unit": "kPa"}, {"measurement": "vapor or sublimation pressure", "setting": "317 K, Liquid", "result": "9.084 ± 0.08", "unit": "kPa"}, {"measurement": "vapor or sublimation pressure", "setting": "322.82 K, Liquid", "result": "12.15 ± 0.086", "unit": "kPa"}, {"measurement": "vapor or sublimation pressure", "setting": "323.13 K, Liquid", "result": "12.33 ± 0.094", "unit": "kPa"}, {"measurement": "vapor or sublimation pressure", "setting": "323.14 K, Liquid", "result": "12.33 ± 0.093", "unit": "kPa"}, {"measurement": "vapor or sublimation pressure", "setting": "323.19 K, Liquid", "result": "12.34 ± 0.086", "unit": "kPa"}, {"measurement": "vapor or sublimation pressure", "setting": "328.15 K, Liquid", "result": "15.75 ± 0.12", "unit": "kPa"}, {"measurement": "vapor or sublimation pressure", "setting": "332.83 K, Liquid", "result": "19.63 ± 0.13", "unit": "kPa"}, {"measurement": "vapor or sublimation pressure", "setting": "333.18 K, Liquid", "result": "19.94 ± 0.14 kPa and 19.95 ± 0.14 kPa"}, {"measurement": "vapor or sublimation pressure", "setting": "333.24 K, Liquid", "result": "19.97 ± 0.13", "unit": "kPa"}, {"measurement": "vapor or sublimation pressure", "setting": "338.19 K, Liquid", "result": "25.06 ± 0.17", "unit": "kPa"}, {"measurement": "vapor or sublimation pressure", "setting": "342.81 K, Liquid", "result": "30.69 ± 0.21", "unit": "kPa"}, {"measurement": "vapor or sublimation pressure", "setting": "343.21 K, Liquid", "result": "31.24 ± 0.21", "unit": "kPa"}, {"measurement": "vapor or sublimation pressure", "setting": "343.22 K, Liquid", "result": "31.24 ± 0.21", "unit": "kPa"}, {"measurement": "vapor or sublimation pressure", "setting": "343.28 K, Liquid", "result": "31.27 ± 0.19", "unit": "kPa"}, {"measurement": "vapor or sublimation pressure", "setting": "348.23 K, Liquid", "result": "38.65 ± 0.25", "unit": "kPa"}, {"measurement": "vapor or sublimation pressure", "setting": "352.81 K, Liquid", "result": "46.65 ± 0.31", "unit": "kPa"}, {"measurement": "vapor or sublimation pressure", "setting": "353.23 K, Liquid", "result": "47.47 ± 0.31", "unit": "kPa"}, {"measurement": "vapor or sublimation pressure", "setting": "353.24 K, Liquid", "result": "47.46 ± 0.3", "unit": "kPa"}, {"measurement": "vapor or sublimation pressure", "setting": "353.31 K, Liquid", "result": "47.53 ± 0.28", "unit": "kPa"}, {"measurement": "vapor or sublimation pressure", "setting": "358.25 K, Liquid", "result": "57.93 ± 0.35", "unit": "kPa"}, {"measurement": "vapor or sublimation pressure", "setting": "362.79 K, Liquid", "result": "68.98 ± 0.47", "unit": "kPa"}, {"measurement": "vapor or sublimation pressure", "setting": "363.24 K, Liquid", "result": "70.36 ± 0.48", "unit": "kPa"}, {"measurement": "vapor or sublimation pressure", "setting": "363.26 K, Liquid", "result": "70.26 ± 0.43", "unit": "kPa"}, {"measurement": "vapor or sublimation pressure", "setting": "363.33 K, Liquid", "result": "70.34 ± 0.4", "unit": "kPa"}, {"measurement": "vapor or sublimation pressure", "setting": "368.27 K, Liquid", "result": "84.67 ± 0.49", "unit": "kPa"}, {"measurement": "vapor or sublimation pressure", "setting": "373.26 K, Liquid", "result": "101.68 ± 0.54", "unit": "kPa"}, {"measurement": "vapor or sublimation pressure", "setting": "373.28 K, Liquid", "result": "101.4 ± 0.53", "unit": "kPa"}, {"measurement": "vapor or sublimation pressure", "setting": "373.37 K, Liquid", "result": "102.01 ± 0.54", "unit": "kPa"}]}
